# Data as given in patent US20070078263A1, “BIARYL SUBSTITUTED HETEROCYCLE INHIBITORS OF LTA4H FOR TREATING INFLAMMATION” (deCODE Chemistry, Inc., priority 2005, published 2007).
# Structures can show the parent of a compound that is named as a salt.
# Target: T1, human LTA4 hydrolase (Homo sapiens, UniProt P09960)
# T1 construct: A human LTA4 hydrolase full-length cDNA clone (NM 000895) was purchased; His tag (6xHis of vector pDEST17); made in house; host or cells: Escherichia coli BL21-AI
# T1 sequence (P09960 1-611): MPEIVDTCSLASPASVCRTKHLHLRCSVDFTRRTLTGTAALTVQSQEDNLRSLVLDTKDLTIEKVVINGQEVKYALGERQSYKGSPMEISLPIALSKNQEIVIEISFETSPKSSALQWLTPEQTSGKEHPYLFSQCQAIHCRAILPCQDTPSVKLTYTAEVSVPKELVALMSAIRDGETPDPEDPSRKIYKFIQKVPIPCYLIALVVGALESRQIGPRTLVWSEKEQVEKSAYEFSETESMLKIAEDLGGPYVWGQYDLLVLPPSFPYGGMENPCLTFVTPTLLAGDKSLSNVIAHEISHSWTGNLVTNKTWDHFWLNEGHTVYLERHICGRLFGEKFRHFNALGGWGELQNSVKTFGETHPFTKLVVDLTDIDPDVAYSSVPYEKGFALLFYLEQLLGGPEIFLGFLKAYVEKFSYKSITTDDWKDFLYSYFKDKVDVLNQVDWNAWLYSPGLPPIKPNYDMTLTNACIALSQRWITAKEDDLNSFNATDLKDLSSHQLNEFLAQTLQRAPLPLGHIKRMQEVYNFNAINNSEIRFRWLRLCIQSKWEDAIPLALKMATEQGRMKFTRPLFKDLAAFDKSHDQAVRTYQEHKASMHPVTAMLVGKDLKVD
# Assay: In vitro assay testing inhibitory activity against purified recombinant human LTA4 hydrolase (LTB4 formed, LC-MS/MS);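 further: 200 nM enzyme preincubated 10 min at room temperature with serial inhibitor dilutions in pH 8.0 Tris buffer with BSA and 10% DMSO, then 2 µM LTA4 added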
# Assay type: biochemical
# Settings: recombinant human LTA4 hydrolase 200 nM, LTA4 2 μM; read-out: AvgIC50
# From the text: (1) In vitro assay testing inhibitory activity against purified recombinant human LTA4 hydroase. […] The gene was amplified by polymerase chain reaction and transferred via pDONR201 into the bacterial expression vector pDEST17 by recombination (both plasmids from Invitrogen, Carlsbad, Calif.). The resulting construct was transformed into Escherichia coli BL21-AI (Invitrogen), and expression was induced by chemical induction with arabinose. The recombinant enzyme was purified by chromatography on an FPLC system (Amersham Biosciences, Uppsala, Sweden) using immobilized metal affinity chromatography (Ni-NTA Superflow, Qiagen, Hilden, Germany) and anion exchange chromatography (MonoQ HR 10/10, Amersham Biosciences).
# The compounds of the invention were incubated in a series of dilutions with 200 nM of recombinant enzyme in assay buffer (100 mM Tris-HCl, 100 mM NaCl, 5 mg/ml fatty-acid free BSA, 10% DMSO, pH 8.0) for 10 min at room temperature to allow binding between LTA4 hydrolase and the inhibitors. LTA4 was prepared by alkaline hydrolysis of LTA4 methyl ester (Biomol, Plymouth Meeting, Pa., or Cayman Chemicals, Ann Arbor, Mich.). A solution of 10 μg of the ester was dried under a nitrogen stream and redissolved in 60 μl of a solution of 80% acetone and 20% 0.25 M NaOH. After incubation for 40 min at room temperature the resulting approximately 500 μM tock of LTA4 was kept at −80° C. for no more than a few days prior to use.
# Immediately before the assay, LTA4 was diluted to a concentration of 10 μM in assay buffer (without DMSO) and added to the reaction mixture to a final concentration of 2 μM to initiate the enzyme reaction. […] The samples were then kept at 4° C. overnight to complete protein precipitation and centrifuged for 15 min at 1800 g.
row,Structure (SMILES),IC50 [µM]
1,"Fc1ccc(COc2ccc(OC[C@H]3CCCN3)cc2)cc1 [Example 92, (R)-2-[4-(4-Fluoro-benzyloxy)-phenoxymethyl]-pyrrolidine Hydrogen chloride salt]",< 5
2,"Fc1ccc(COc2ccc(OC[C@H]3CCCN3)cc2)cc1F [Example 93, (R)-2-[4-(3,4-Difluoro-benzyloxy)-phenoxymethyl]-pyrrolidine Hydrogen chloride salt]",< 5
3,"Clc1ccc(COc2ccc(OC[C@H]3CCCN3)cc2)cc1 [Example 94, (R)-2-[4-(4-Chloro-benzyloxy)-phenoxymethyl]-pyrrolidine Hydrogen chloride salt]",< 5
4,"FC(F)(F)c1ccc(COc2ccc(OC[C@H]3CCCN3)cc2)cc1 [Example 95, (R)-2-[4-(4-Trifluoromethyl-benzyloxy)-phenoxymethyl]-pyrrolidine Hydrogen chloride salt]",< 5
5,"FC(F)(F)c1cccc(COc2ccc(OC[C@H]3CCCN3)cc2)c1 [Example 96, (R)-2-[4-(3-Trifluoromethyl-benzyloxy)-phenoxymethyl]-pyrrolidine Hydrogen chloride salt]",5 to 20
6,"COc1cccc(COc2ccc(OC[C@H]3CCCN3)cc2)c1 [Example 97, (R)-2-[4-(3-Methoxy-benzyloxy)-phenoxymethyl]-pyrrolidine Hydrogen chloride salt]",20 to 100
7,"Clc1cc2c(cc1COc1ccc(OC[C@H]3CCCN3)cc1)OCO2 [Example 98, (R)-2-[4-(6-Chloro-benzo[1,3]dioxol-5-ylmethoxy)phenoxymethyl]pyrrolidine Hydrogen chloride salt]",20 to 100
8,"c1ccc2oc(Oc3ccc(OC[C@H]4CCCN4)cc3)nc2c1 [Example 99, (R)-2-[4-(Benzooxazol-2-yloxy)-phenoxymethyl]-pyrrolidine Hydrogen chloride salt]",< 5
9,"Clc1ccc2nc(Oc3ccc(OC[C@H]4CCCN4)cc3)sc2c1 [Example 101, (R)-2-[4-(6-Chloro-benzothiazol-2-yloxy)-phenoxymethyl]-pyrrolidine-Hydrogen chloride salt]",< 5
10,"COc1ccc2nc(Oc3ccc(OC[C@H]4CCCN4)cc3)sc2c1 [Example 102, (R)-2-[4-(6-Methoxy-benzothiazol-2-yloxy)-phenoxymethyl]-pyrrolidine-Hydrogen chloride salt]",< 5
11,"c1ccc2[nH]c(Oc3ccc(OC[C@H]4CCCN4)cc3)nc2c1 [Example 103, 2-[4-((R)-1-Pyrrolidin-2-ylmethoxy)-phenoxy]-1H-benzoimidazole Hydrogen chloride salt]",< 5
12,"O=C(O)CCCN1CCC[C@@H]1COc1ccc(Cc2ccc(-c3ccco3)cc2)cc1 [Example 114, 4-{(R)-2-[4-(4-furan-2-yl-benzyl)-phenoxymethyl]-pyrrolidin-1-yl}-butyric acid hydrogen chloride salt]",< 5
13,"Cc1ccc(-c2ccc(Cc3ccc(OC[C@H]4CCCN4CCCC(=O)O)cc3)cc2)s1 [Example 115, (R)-2-{4-[4-(5-methyl-thiophen-2-yl)-benzyl]-phenoxymethyl}-pyrrolidin-1-yl}-butyric acid hydrogen chloride salt]",< 5
14,"O=C(O)CCCN1CCC[C@@H]1COc1ccc(Cc2ccc(-c3ccc(Cl)s3)cc2)cc1 [Example 116, (R)-2-{4-[4-(5-chloro-thiophen-2-yl)-benzyl]-phenoxymethyl}-pyrrolidin-1-yl}-butyric hydrogen chloride salt]",< 5
15,O=C(O)CCCN1CCC[C@H]1COc1ccc(Cc2ccc(-c3cccs3)cc2)cc1 [Example 118],< 5
16,"Ic1ccc(Cc2ccc(OC[C@@H]3CCCN3)cc2)cc1 [Example 121, (S)-2-[4-(4-Iodo-benzyl)-phenoxymethyl]-pyrrolidine]",< 5

row,Structure (SMILES),IC50 [µM]
1,"c1cc(OC[C@@H]2CCCN2)ccc1Cc1ccc(N2CCC2)cc1 [Example 124, (S)-2-[4-(4-Azetidin-1-yl-benzyl)-phenoxymethyl]-pyrrolidine hydrogen chloride salt]",5 to 20
2,"c1cc(-c2ccc(Cc3ccc(OC[C@H]4CCCN4)cc3)cc2)ccn1 [Example 125, 4-{4-[4-((R)-1-Pyrrolidin-2-ylmethoxy)-benzyl]-phenyl}-pyridine hydrogen chloride salt]",5 to 20
3,"c1cncc(-c2ccc(Cc3ccc(OC[C@H]4CCCN4)cc3)cc2)c1 [Example 126, 3-{4-[4-((R)-1-Pyrrolidin-2-ylmethoxy)-benzyl]-phenyl}-pyridine]",5 to 20
4,"O=C(c1ccc(I)cc1)c1ccc(OC[C@H]2CCCN2)cc1 [Example 127, (4-Iodo-phenyl)-[4-((R)-1-pyrrolidin-2-ylmethoxy)-phenyl]-methanone]",5 to 20
5,"OC(c1ccc(OC[C@H]2CCCN2)cc1)c1ccc(-c2ccsc2)cc1 (stereo partly drawn) [Example 129, [4-((R)-1-Pyrrolidin-2-ylmethoxy)-phenyl]-(4-thiophen-3-yl-phenyl)-methanol]",5 to 20
6,"c1csc(-c2ccc(Oc3ccc(OC[C@H]4CCCN4)cc3)cc2)c1 [Example 131, (R)-2-[4-(4-Thiophen-2-yl-phenoxy)-phenoxymethyl]-pyrrolidine-1-hydrogen chloride salt]",5 to 20
7,"c1ncc(-c2ccc(Oc3ccc(OC[C@H]4CCCN4)cc3)cc2)o1 [Example 132, 5-{4-[4((R)-1-Pyrrolidin-2-ylmethoxy)-phenoxy]-phenyl}-oxazole, hydrogen chloride salt]",5 to 20
8,"N#CC1(c2ccc(Oc3ccc(OC[C@H]4CCCN4)cc3)cc2)CC1 [Example 136, 1-{4-[4-((R)-1-Pyrrolidin-2-ylmethoxy)-phenoxy]-phenyl}-cyclopropanecarbonitrile hydrogen chloride salt]",< 5
9,"C[C@@H](NC(=O)CCCN1CCC[C@H]1COc1ccc(Oc2ccc(Cl)cc2)cc1)c1ccccc1 [Example 139, 4-{(S)-2-[4-(4-Chloro-phenoxy)-phenoxymethyl]-pyrrolidin-1-yl}-N—[(R)-1-phenylethyl]-butyramide]",< 5
10,"c1ccc(Cc2ccc(OC[C@H]3CCCN3)nc2)cc1 [Example 141, 5-Benzyl-2-((R)-1-pyrrolidin-2-ylmethoxy)-pyridinehydrochloride salt]",< 5
11,"c1ccc(Cc2ccc(OC[C@@H]3CCCN3)nc2)cc1 [Example 142, 5-Benzyl-2-((S)-1-pyrrolidin-2-ylmethoxy)-pyridine hydrochloride salt]",< 5
12,"c1cc(Oc2ccc(OC[C@H]3CCCN3)cc2)ccn1 [Example 144, 4-[4-((R)-1-Pyrrolidin-2-ylmethoxy)-phenoxy]-pyridine]",< 5
13,"O=C(O)CCN1CCC[C@@H]1COc1ccc(Oc2ccncc2)cc1 [Example 145, 3-{(R)-2-[4-(Pyridin-4-yloxy)-phenoxymethyl]-pyrrolidin-1-yl}-propionic acid]",< 5
14,"c1coc(-c2ccc(Oc3ccc(OC[C@H]4CCCN4)cc3)cc2)n1 [Example 148, hydrochloride salt]",< 5
15,"c1csc(-c2ccc(Cc3ccc(OC[C@H]4CCCN4)cc3)cc2)n1 [Example 149, 2-{4-[4-((R)-1-Pyrrolidin-2-ylmethoxy)-benzyl]-phenyl}-thiazole hydrochloride salt]",< 5
16,"c1csc(-c2ccc(Cc3ccc(OC[C@@H]4CCCN4)cc3)cc2)n1 [Example 150, 2-{4-[4-((S)-1-Pyrrolidin-2-ylmethoxy)-benzyl]-phenyl}-thiazole hydrochloride salt]",< 5
